Consider five molecules from patent US20230339902A1, “TRICYCLIC LIGANDS FOR DEGRADATION OF IKZF2 OR IKZF4” (C4 Therapeutics, Inc., priority 2020, published 2023).

In one test the target is T1, GSPT1 (Homo sapiens, UniProt P15170+Q96SW2).
T1 construct: endogenously expressing GSPT1 with HiBiT fusion tag via CRISPR; endogenous in cells; host or cells: 293T.114 (HiBiT-GSPT1), CRISPR knock-in, generated in house
In words: GSPT1 degradation assay, HiBiT method (Nano-Glo HiBiT Lytic Assay). In kind it is cell-based. Particulars: 293T.114 (HiBiT-GSPT1) cells, 6 hours. As to the method: Example 62 GSPT1 Degradation Assay
DMEM no-phenol red medium and fetal bovine serum (FBS) were purchased from Gibco (Grand Island, NY, USA). Nano-Glo® HiBiT Lytic Assay System was purchased from Promega (Madison, WI, USA). 293T.114 (HiBiT-GSPT1) cell line was generated in house, endogenously expressing GSPT1 with HiBiT fusion tag via CRISPR. Cell culture flasks and 384-well microplates were acquired from VWR (Radnor, PA, USA).
GSPT1 Degradation Analysis
(§1) GSPT1 degradation was determined based on quantification of luminescent signal using Nano-Glo® HiBiT Lytic Assay kit. Test compounds were added to the 384-well plate from a top concentration of 10 µM with 11 points, half log titration in duplicates. 293T.114 cells were added into 384-well plates at a cell density of 6000 cells per well. The plates were kept at 37° C. with 5% CO2 for 6 hours. The cells treated in the absence of the test compound were the negative control and the cells without Nano-Glo® HiBiT Lytic reagent were the positive control. After 6-hour incubation, Nano-Glo® HiBiT Lytic Assay reagents were added to the designated wells. Luminescence was acquired on EnVision™ Multilabel Reader (PerkinElmer, Santa Clara, CA, USA).

For a further test, the target named is T2, IKZF2 (Homo sapiens, UniProt Q96SW2+Q9UKS7).
T2 construct: endogenously expressing IKZF2 with HiBiT fusion tag via CRISPR; host or cells: JURKAT.21 (IKZF2-HiBiT), CRISPR knock-in
In words: IKZF2 degradation assay, HiBiT method (Nano-Glo HiBiT Lytic Assay). The class given is cell-based. Particulars: JURKAT.21 (IKZF2-HiBiT) cells.
From the text: Example 61 IKZF2 Degradation Assay
RPMI 1640 Medium without phenol red and fetal bovine serum (FBS) were purchased from Gibco (Grand Island, NY, USA). Nano-Glo® HiBiT Lytic Assay System was purchased from Promega (Madison, WI, USA). JURKAT.21 (IKZF2-HiBiT) cell line, endogenously expressing IKZF2 with HiBiT fusion tag via CRISPR, was purchasing from Synthego (Menlo Park, CA, USA). Cell culture flasks and 384-well microplates were acquired from VWR (Radnor, PA, USA).
IKZF2 Degradation Analysis
as §1, with “IKZF2” for “GSPT1”, “JURKAT.216” for “293T.114”, “5000” for “6000”, “6 or 24” for “6”, “6-hour or 24-hour” for “6-hour”, “cells.” for “designated wells.”

[1] abbreviates: 6 hours, read-out: HiBiT-Degradation JURKAT.21 IKZF2 6 hours DC50.
The mark [2] stands for this setting: 6 hours, read-out: HiBiT-Degradation JURKAT.21 IKZF2 6 hours Emax.

Where two headings read alike, the source gives them in different places.

T1 sequence (P15170 whole entry, the tested form may be a part): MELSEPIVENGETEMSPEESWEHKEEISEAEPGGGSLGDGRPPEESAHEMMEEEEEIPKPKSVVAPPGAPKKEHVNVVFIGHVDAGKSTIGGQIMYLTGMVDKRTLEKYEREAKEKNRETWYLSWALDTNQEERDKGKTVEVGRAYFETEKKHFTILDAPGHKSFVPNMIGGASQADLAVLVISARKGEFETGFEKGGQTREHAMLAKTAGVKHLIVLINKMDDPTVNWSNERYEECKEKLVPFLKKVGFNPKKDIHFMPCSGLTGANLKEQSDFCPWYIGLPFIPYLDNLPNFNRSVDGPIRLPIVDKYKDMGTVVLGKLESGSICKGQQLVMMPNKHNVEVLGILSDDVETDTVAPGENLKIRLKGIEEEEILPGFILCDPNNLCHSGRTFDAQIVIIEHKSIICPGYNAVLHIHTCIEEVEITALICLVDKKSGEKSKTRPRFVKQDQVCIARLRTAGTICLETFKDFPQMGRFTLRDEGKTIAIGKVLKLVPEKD
T1 sequence (Q96SW2 whole entry, the tested form may be a part): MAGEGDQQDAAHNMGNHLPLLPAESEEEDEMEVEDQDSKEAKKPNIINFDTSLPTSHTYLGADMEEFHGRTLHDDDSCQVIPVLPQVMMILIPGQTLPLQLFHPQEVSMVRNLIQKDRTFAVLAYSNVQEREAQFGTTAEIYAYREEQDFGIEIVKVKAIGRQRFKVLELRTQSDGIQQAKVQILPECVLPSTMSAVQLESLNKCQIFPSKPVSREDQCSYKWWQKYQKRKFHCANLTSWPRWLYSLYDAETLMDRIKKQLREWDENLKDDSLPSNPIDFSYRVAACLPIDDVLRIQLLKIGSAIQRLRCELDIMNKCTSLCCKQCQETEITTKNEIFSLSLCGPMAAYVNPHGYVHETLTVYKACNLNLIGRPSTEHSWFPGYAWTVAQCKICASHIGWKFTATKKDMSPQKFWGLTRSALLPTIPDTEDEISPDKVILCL
T1 sequence (Q16531 whole entry partner, the tested form may be a part): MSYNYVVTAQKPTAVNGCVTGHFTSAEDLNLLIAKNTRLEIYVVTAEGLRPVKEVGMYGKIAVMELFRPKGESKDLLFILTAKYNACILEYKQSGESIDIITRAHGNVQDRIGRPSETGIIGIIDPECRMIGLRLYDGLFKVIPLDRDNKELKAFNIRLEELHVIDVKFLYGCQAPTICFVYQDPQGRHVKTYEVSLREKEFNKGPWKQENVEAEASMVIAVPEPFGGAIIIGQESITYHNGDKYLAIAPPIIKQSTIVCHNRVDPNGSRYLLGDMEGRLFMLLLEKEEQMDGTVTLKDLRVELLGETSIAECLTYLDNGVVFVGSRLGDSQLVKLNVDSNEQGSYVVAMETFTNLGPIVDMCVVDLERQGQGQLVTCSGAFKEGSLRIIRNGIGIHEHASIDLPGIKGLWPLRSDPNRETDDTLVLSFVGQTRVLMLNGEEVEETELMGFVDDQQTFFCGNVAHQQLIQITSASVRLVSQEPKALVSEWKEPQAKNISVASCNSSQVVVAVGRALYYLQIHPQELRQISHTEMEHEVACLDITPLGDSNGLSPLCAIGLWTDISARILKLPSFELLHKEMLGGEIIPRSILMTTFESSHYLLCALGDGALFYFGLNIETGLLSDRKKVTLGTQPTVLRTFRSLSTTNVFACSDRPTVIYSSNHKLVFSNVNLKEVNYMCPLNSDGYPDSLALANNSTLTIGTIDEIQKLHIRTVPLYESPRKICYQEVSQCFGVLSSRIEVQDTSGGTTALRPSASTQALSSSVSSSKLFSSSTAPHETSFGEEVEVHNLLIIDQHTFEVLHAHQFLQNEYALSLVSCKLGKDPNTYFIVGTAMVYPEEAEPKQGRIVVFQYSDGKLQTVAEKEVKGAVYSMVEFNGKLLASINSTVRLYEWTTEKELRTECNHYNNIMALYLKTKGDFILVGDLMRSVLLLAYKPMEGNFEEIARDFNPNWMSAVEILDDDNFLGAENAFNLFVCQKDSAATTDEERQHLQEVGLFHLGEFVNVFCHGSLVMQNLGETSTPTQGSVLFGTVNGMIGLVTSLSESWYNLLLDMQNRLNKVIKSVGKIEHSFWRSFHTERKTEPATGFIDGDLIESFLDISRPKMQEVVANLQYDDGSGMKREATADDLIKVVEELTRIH
T2 sequence (Q9UKS7 whole entry, the tested form may be a part): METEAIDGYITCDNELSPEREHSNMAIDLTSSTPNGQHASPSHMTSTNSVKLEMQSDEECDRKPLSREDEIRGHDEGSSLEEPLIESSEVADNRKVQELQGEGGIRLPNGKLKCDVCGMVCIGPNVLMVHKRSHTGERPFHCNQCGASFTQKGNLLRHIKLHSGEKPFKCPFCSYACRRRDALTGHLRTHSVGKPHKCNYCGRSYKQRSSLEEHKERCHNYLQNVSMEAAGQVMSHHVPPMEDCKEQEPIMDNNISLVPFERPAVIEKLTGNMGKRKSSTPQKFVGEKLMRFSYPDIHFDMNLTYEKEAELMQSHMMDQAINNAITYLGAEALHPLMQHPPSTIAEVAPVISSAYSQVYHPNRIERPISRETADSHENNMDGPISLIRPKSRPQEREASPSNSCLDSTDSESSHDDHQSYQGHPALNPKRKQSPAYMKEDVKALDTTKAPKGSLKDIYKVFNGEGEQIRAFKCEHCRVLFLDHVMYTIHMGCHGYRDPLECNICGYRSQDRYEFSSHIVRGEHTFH
T2 sequence (Q96SW2 whole entry, the tested form may be a part): as the sequence (Q96SW2 whole entry, the tested form may be a part) above
T2 sequence (Q16531 whole entry partner, the tested form may be a part): as the sequence (Q16531 whole entry partner, the tested form may be a part) above

Turning to `O=C1CCC(N2C(=O)c3ccc(N4CCN(Cc5ccccc5)CC4)c4nccc2c34)C(=O)N1` (stereo not shown) [Compound 120, 3-[18-(4-benzylpiperazin-1-yl)-24-oxo-26,30-diazatricyclododeca-5,7(19),8(26),17(20),18(21)-pentaen-30-yl]piperidine-2,6-dione], the DC50 on GSPT1 and at IKZF2 (setting [1]) was over 10 µM each time. For the same molecule, the Emax at GSPT1 and on IKZF2 (setting [2]) was 60 to 95% throughout.
For `CN1CCN(c2ccc3c4c(ccnc24)N(C2CCC(=O)NC2=O)C3=O)CC1` (stereo not shown) [Compound 121], the DC50 on GSPT1 and on IKZF2 (setting [1]) was over 10 µM throughout. In addition, the Emax (in general, the maximal effect, on the per cent scale that the assay sets) at GSPT1 was 60 to 95%; at IKZF2 (setting [2]), over 95%.
In the case of `CC(NC(=O)c1ccc2c3c(ccnc13)N(C1CCC(=O)NC1=O)C2=O)c1ccccc1` (stereo not shown) [Compound 122, 27-(2,6-dioxo-3-piperidyl)-20-oxo-N-(1-phenylethyl)-24,27-diazatricyclododeca-6,8(15),9(24),13(16),14(17)-pentaene-14-carboxamide], the DC50 at GSPT1 and on IKZF2 (setting [1]) was over 10 µM each time. Also, the Emax at GSPT1 and on IKZF2 (setting [2]) was 60 to 95% each time.
As for `COc1ncc(CN2CCC(c3ccc4c5c(ccnc35)N(C3CCC(=O)NC3=O)C4=O)CC2)cn1` (stereo not shown) [Compound 127, 3-[14-[1-[(2-methoxypyrimidin-5-yl)methyl]-4-piperidyl]-24-oxo-26,31-diazatricyclododeca-1(14),2(15),3(16),4(26),18-pentaen-31-yl]piperidine-2,6-dione], the DC50 on GSPT1 and on IKZF2 (setting [1]) was over 10 µM each time. Besides, the Emax at GSPT1 is over 95%; on IKZF2 (setting [2]), 60 to 95%.
Turning to `O=C1CCC(N2C(=O)c3ccc(C4CCN(Cc5cccc(S(=O)(=O)N6CCOCC6)c5)CC4)c4nccc2c34)C(=O)N1` (stereo not shown) [Compound 128, 3-[21-[1-[(3-morpholinosulfonylphenyl)methyl]-4-piperidyl]-29-oxo-31,35-diazatricyclododeca-3(21),4(22),5(23),6(31),24-pentaen-35-yl]piperidine-2,6-dione], the DC50 (usually the concentration giving 50% degradation) was over 10 µM on GSPT1; over 10 µM at IKZF2 (setting [1]); over 10 µM on IKZF2 (24 hours, read-out: HiBiT-Degradation JURKAT.21 IKZF2 24 hours DC50). Also, the Emax on GSPT1 was 60 to 95%; at IKZF2 (setting [2]) it was 60 to 95%; on IKZF2 (24 hours, read-out: HiBiT-Degradation JURKAT.21 IKZF2 24 hours Emax), 60 to 95%.
